# Data reported in PubChem BioAssay (NCI).
#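 Values below derive from 48-hour exposures of cells grown in 96-well plates, with endpoints linearly interpolated between the two concentrations bracketing the appropriate inhibition level. The concentration for full growth arrest is given as TGI.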
# How the values were obtained:
# Experiment in all cases: NCI-60 cell line screen, 48 h
# HOP-18 NSCLC = tested on: HOP-18 NSCLC
# KM20L2 colon = tested on: KM20L2 colon
# LXFL 529 NSCLC = tested on: LXFL 529 NSCLC
# XF 498 CNS = tested on: XF 498 CNS
# SNB-78 CNS = tested on: SNB-78 CNS
# RXF-631 renal = tested on: RXF-631 renal
# DMS 114 small cell lung = tested on: DMS 114 small cell lung
# DMS 273 small cell lung = tested on: DMS 273 small cell lung
# M19-MEL melanoma = tested on: M19-MEL melanoma
SMILES,TGI (HOP-18 NSCLC) [µM],TGI (KM20L2 colon) [µM],TGI (LXFL 529 NSCLC) [µM],TGI (XF 498 CNS) [µM],TGI (SNB-78 CNS) [µM],TGI (RXF-631 renal) [µM],TGI (DMS 114 small cell lung) [µM],TGI (DMS 273 small cell lung) [µM],TGI (M19-MEL melanoma) [µM]
N#Cc1ccc(/C=C(/C(=O)c2ccccc2)c2ccccc2)cc1,> 55.1,31.2,20.4,16.4,14.3,29.8,31.5,26.2,31.8
O=c1[nH]c2cc([N+](=O)[O-])ccc2nc1/C(=N/Nc1ccccc1)C(O)c1ccco1 (stereo not drawn),–,> 100,> 100,> 100,–,> 100,> 100,> 100,> 100
CC(C)c1ccc(C2NC(=S)NC3=C2c2ccccc2C3=O)cc1 (stereo not drawn),–,64.5,> 100,> 100,–,> 100,58.8,> 100,> 100
COc1cccc2c1C1(O)C2CCCCCCCCCC12OCCCO2 (stereo not drawn),> 100,> 100,> 100,–,> 100,–,> 100,> 100,–
C/C(=N\NC(=O)C[N+](C)(C)C)c1sc(-c2cccnc2)nc1C,–,> 100,> 100,> 100,> 100,> 100,> 100,> 100,> 100
O=C1N2Cc3c4ccc5c3CN3C(=O)N6Cc7c(ccc(c7CN1C6(c1ccccc1)C23c1ccccc1)OCCOCCOc1cc(Br)c(Br)cc1OCCOCCO4)OCCOCCOc1cc(Br)c(Br)cc1OCCOCCO5 (stereo not drawn),> 100,> 100,> 100,–,> 100,> 100,> 100,> 100,> 100
O=C(Cc1nc2sc3c(c2c(=O)[nH]1)CCCC3)Nc1ccccc1,> 100,> 100,> 100,> 100,–,–,> 100,> 100,> 100
N#COc1ccc(Oc2ccccc2)cc1,> 100,> 100,> 100,> 100,> 100,–,89.6,50.4,> 100
[N-]=[N+]=NC1(c2ccccc2)C(=O)C(Cl)=C(c2ccccc2)N(c2ccccc2)C1=O (stereo not drawn),> 100,> 100,> 100,–,> 100,–,> 100,> 100,> 100
O=C(O)[C@@H]1OCCOCCO[C@@H](C(=O)O)[C@H](C(=O)O)OCCOCCO[C@H]1C(=O)O,> 100,> 100,> 100,> 100,> 100,–,> 92.3,> 100,> 100
CC(C)(C)C1CCC2c3c([nH]c4ncccc34)C3C(=O)N(c4ccccc4)C(=O)C3C2C1 (stereo not drawn),> 100,> 100,> 100,> 100,> 100,–,> 100,> 100,> 100
O=C(c1ccco1)N(C(=S)N1CCN(c2ccccc2)CC1)C1CCCCC1,> 100,> 100,> 100,–,> 100,–,> 100,> 100,> 100
COc1ccc2c3c([nH]c(=O)c2c1C(=O)O)-c1ccccc1CC3,–,> 100,> 100,> 100,> 100,> 100,> 100,> 100,–
CCO/S(=N/S(=O)(=O)c1ccccc1)c1ccccc1[N+](=O)[O-] (stereo not drawn),> 100,> 100,> 100,> 100,–,–,> 100,> 100,> 100
N#C/C(c1nc2ccccc2[nH]1)=c1\s/c(=C(/N)O)c(=N)n1-c1ccccc1,–,> 100,> 100,> 100,> 100,–,> 100,> 100,> 100
Cc1ccc(S(=O)(=O)N/N=C(\c2nc3ccc([N+](=O)[O-])cc3[nH]c2=O)C(O)c2ccc([N+](=O)[O-])cc2)cc1 (stereo not drawn),–,> 100,> 100,> 100,> 100,–,> 100,> 100,> 100
